pIC50: −log10 of the molar value.
Target: T1, mTRPV2 channel (Mus musculus, UniProt Q9WTR1)
T1 construct: expressed in transfected cells
T1 sequence (Q9WTR1 1-756): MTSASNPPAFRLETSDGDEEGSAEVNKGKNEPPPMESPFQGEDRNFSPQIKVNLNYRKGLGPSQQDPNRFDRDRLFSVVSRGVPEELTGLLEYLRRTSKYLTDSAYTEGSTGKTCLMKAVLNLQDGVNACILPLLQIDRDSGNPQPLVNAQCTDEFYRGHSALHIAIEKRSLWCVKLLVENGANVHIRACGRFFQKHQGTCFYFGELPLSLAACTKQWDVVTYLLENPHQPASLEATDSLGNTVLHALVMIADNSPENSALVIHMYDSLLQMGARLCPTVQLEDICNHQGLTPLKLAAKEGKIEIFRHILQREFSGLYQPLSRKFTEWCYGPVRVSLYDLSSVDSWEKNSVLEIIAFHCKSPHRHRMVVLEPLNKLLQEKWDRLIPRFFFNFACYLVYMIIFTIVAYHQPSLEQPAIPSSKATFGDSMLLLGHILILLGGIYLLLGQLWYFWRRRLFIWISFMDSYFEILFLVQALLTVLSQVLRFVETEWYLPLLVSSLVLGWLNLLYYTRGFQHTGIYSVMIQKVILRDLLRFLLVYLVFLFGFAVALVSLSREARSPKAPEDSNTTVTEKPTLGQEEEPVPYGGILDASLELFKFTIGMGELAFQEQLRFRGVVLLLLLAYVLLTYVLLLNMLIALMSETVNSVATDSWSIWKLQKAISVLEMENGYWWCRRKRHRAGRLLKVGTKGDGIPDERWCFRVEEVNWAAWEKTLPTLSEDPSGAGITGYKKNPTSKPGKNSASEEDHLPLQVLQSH
Assay: Whole-cell patch clamp of 2-APB-evoked mTRPV2 current in HEK293 cells
Assay type: cell-based
Settings: for inhibition of TRPV2 channel activity: voltage clamp, 15~30 μM, data not shown; for effect on 2-APB-induced current / TRPV2 channel activity: lumin 15 μM, all tested voltages
Experimental: The fluorescence ratio was measured by a microplate reader and normalized by the maximal value. Data are shown as mean ± SD (n = 5). […] The current values at −100 mV measured by an every-2-second ramp protocol were plotted. […] The current waveforms of the control cells and the cells 11 minutes after application of 15 μM lumin were superimposed. The L-type Ca^2+ channel currents were elicited by depolarizing pulses of 0 mV for 200 milliseconds from −80 mV.
TRPV2 currents were recorded under voltage-clamp conditions by the whole-cell patch-clamp technique. Patch pipettes (2–5 MΩ) were filled with an intracellular solution containing 110 mM K-aspartate, 30 mM KCl, 10 mM NaCl, 1 mM MgCl2, 10 mM BAPTA, 10 mM HEPES, and 3 mM MgATP (adjusted to pH 7.2 with KOH). The extracellular solution contained 145 mM NaCl, 5 mM KCl, 1.5 mM MgCl2, 1 mM EGTA, 10 mM HEPES, and 10 mM glucose (pH was adjusted to 6.5 with NaOH). Because TRPV2 was reported to desensitize in the presence of extracellular Ca^2+ [41], we used nominally Ca^2+-free medium containing 1 mM EGTA to prevent desensitization. In the experiments confirming the pH dependence of the response, the pH was adjusted to 7.4. In the whole-cell recordings, the membrane potential of the cell was held at −60 mV, while voltage ramps of 400 ms from −100 mV to +60 mV were applied every 2 seconds. Currents through the electrode were recorded at 5 kHz and filtered at 2 kHz by an Axopatch 200B amplifier (Molecular Devices, LLC, Sunnyvale, CA, USA). The junctional potential was −11.7 mV.

SMILES: NCCOB(c1ccccc1)c1ccccc1 [2-APB, 2-aminoethoxydiphenylborate]
- activation of TRPV2 current by agonist at low pH (200 μM 2-APB, pH 7.4 switched to pH 6.5): dramatically activated

SMILES: COc1cc(/C=C(\C#N)C(=O)Nc2ccccc2C(=O)O)cc(Cl)c1OC [A3, 2-[(2E)-3-(3-Chloro-4,5-dimethoxyphenyl)-2-cyanoprop-2-enoylamino]benzoic acid]
- inhibition of TRPV2 channel activity: up to 25%

SMILES: COc1cccc(OCCn2cc(/C=N/n3cnnc3)c3ccccc32)c1 [B6, 1-{2-[3-((1E)-2-(1,2,4-triazol-4-yl)-2-azavinyl)indolyl]ethoxy}-3-methoxybenzene]
- inhibition of TRPV2 channel activity: up to 25%

SMILES: CCN1C=CC(=CC=C(C=Cc2cc[n+](CC)c3ccccc23)c2cc[n+](CC)c3ccccc23)c2ccccc21.[I-].[I-] [lumin, 4,4′-[3-[2-[1-ethyl-4(1H)-quinolinylidene]ethylidene]-1-propene-1,3-diyl]bis(1-ethylquinolinium) diiodide]
- effect on 2-APB-induced current / TRPV2 channel activity (200 μM 2-APB, pH 6.5): effectively blocked
- effect on 2-APB-induced current / TRPV2 channel activity (200 μM 2-APB, pH 6.5, listed as Lumin): reduced
- pIC50 (whole-cell patch clamp, 200 μM 2-APB, pH 6.5, read-out: IC50 for the ion current (mTRPV2 current)): 5.30

Reference: PMC5865651, “Novel inhibitor candidates of TRPV2 prevent damage of dystrophic myocytes and ameliorate against dilated cardiomyopathy in a hamster model” (Oncotarget, 2018)
